In paper PMC11882793 (Nature Communications, 2025):
No end group written: not given here. *: point of attachment. FITC = O=C1OC2(c3ccc(O)cc3Oc3cc(O)ccc32)c2ccc(NC(=S)*)cc21

How the values were obtained:
[1] = molecular target: FITC-labeled peptide derived from the wild-type C-terminal sequence of SciP (C. crescentus); experiment: fluorescence polarisation
[2] = molecular target: T1, NTD of CcLon (aa. 1-206) (Caulobacter vibrioides, UniProt P0CAW0); experiment: Fluorescence polarization, FITC-labeled degron peptides vs NTD; assay type: binding, C. crescentus; conditions: FP assay
T1 sequence (P0CAW0 1-206): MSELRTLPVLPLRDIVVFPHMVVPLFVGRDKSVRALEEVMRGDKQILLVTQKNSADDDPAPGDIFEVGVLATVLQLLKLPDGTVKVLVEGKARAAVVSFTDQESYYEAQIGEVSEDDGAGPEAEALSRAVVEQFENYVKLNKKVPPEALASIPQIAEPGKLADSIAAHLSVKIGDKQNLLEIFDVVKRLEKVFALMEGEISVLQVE

[3] = tested on: LarA-NTD complex; experiment: Fluorescence polarization, FITC-labeled degron peptides vs LarA-NTD complex; assay type: binding, C. crescentus; conditions: FP assay

Kd [1] [µM]	Substance	FP binding to NTD (in words) [2]	FP binding to LarA-NTD complex (in words) [3]
413	LarA-NTD complex (from UniProt P0CAW0 1-206)	–	–
–	{FITC}-HEAAPASAH [pep-LarA-mut]	failed to bind	failed to bind
–	{FITC}-HELAPVSVH [pep-LarA-amidated]	no binding was observed	comparable to that of pep-LarA
–	{FITC}-QSADRHGAAGARTTRAQQYR [pep-SciP-mut]	failed to bind	failed to bind
